The target of one experiment is T1, Isoleucine--tRNA ligase (Staphylococcus aureus, UniProt P41972).
T1 sequence (P41972 whole entry): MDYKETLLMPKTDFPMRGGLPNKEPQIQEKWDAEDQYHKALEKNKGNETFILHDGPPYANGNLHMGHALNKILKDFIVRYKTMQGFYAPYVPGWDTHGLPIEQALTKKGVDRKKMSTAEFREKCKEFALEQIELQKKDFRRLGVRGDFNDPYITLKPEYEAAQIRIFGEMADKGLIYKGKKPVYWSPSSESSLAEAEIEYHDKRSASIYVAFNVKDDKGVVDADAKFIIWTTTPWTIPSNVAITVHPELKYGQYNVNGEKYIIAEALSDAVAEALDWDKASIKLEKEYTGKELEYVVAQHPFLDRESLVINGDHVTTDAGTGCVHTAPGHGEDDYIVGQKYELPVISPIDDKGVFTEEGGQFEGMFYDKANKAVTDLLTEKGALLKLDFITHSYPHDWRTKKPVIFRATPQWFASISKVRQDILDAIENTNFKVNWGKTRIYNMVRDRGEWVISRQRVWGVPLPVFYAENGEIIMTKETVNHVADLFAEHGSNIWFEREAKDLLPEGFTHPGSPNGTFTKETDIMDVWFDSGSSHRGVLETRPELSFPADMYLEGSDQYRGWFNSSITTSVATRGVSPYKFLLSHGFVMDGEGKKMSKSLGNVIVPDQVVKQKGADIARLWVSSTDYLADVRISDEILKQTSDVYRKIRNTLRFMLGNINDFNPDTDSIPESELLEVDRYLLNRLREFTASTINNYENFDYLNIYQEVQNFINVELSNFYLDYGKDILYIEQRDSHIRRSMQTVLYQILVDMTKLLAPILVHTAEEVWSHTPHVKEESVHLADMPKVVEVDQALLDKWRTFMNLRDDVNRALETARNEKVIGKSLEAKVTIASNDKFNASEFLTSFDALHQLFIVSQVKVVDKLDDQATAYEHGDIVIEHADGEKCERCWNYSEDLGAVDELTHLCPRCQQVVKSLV
As to the kind of experiment: Compound tested for the inhibition of Staphylococcus aureus isoleucyl-tRNA synthetase.

Experiment [1] addresses T2, Isoleucine--tRNA ligase, cytoplasmic (Homo sapiens, UniProt P41252).
T2 sequence (P41252 whole entry): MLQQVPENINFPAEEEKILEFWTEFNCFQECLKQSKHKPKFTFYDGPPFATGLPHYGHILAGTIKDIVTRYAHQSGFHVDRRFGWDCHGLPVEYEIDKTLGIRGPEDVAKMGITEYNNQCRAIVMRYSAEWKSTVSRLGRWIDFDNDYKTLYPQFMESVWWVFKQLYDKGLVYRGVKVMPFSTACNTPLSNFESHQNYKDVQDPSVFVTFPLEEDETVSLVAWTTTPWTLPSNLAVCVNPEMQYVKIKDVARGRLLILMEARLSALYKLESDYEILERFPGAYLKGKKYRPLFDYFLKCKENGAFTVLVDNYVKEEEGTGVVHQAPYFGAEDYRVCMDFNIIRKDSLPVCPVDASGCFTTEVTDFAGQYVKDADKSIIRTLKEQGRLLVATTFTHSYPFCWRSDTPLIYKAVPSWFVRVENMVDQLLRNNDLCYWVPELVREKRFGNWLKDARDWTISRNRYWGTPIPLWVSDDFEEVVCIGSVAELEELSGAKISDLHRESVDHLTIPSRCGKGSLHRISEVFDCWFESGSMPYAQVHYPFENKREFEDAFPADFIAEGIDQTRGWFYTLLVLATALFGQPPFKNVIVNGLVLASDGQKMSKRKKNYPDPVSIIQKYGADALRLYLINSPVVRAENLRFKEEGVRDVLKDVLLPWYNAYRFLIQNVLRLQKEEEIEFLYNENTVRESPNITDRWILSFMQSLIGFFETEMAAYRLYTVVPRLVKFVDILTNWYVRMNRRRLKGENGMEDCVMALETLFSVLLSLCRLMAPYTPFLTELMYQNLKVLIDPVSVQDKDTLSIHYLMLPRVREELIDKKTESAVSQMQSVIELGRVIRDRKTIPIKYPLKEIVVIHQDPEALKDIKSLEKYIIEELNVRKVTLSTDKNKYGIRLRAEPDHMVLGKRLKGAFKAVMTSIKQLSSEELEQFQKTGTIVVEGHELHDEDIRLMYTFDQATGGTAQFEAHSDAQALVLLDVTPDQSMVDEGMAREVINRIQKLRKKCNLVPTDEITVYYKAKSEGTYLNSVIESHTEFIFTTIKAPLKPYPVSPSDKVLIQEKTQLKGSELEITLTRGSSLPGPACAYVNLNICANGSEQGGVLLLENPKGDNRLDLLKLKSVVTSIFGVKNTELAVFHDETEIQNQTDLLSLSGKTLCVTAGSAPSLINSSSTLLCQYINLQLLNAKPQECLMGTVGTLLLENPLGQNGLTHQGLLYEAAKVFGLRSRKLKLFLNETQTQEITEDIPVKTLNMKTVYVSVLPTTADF
Briefly: Compound tested for the inhibition of human isoleucyl-tRNA synthetase.

Experiment [2] is described as follows: Selectivity ratio of human to that of Escherichia coli was determined for isoleucyl-tRNA synthetase.
The target of the next experiment is S. aureus MRSA LeuRS (Staphylococcus aureus, UniProt P67513). Briefly: Compound tested for the inhibition of Staphylococcus aureus Leucyl-tRNA synthetase.
Experiment [3] can be described thus: Selectivity ratio of human to that of Escherichia coli was determined for leucyl-tRNA synthetase.
For experiment [4], the target named is Leucine--tRNA ligase, cytoplasmic (Homo sapiens, UniProt Q9P2J5). As to the kind of experiment: Compound tested for the inhibition of human Leucyl-tRNA synthetase.
Leucine--tRNA ligase, cytoplasmic, sequence (Q9P2J5 whole entry): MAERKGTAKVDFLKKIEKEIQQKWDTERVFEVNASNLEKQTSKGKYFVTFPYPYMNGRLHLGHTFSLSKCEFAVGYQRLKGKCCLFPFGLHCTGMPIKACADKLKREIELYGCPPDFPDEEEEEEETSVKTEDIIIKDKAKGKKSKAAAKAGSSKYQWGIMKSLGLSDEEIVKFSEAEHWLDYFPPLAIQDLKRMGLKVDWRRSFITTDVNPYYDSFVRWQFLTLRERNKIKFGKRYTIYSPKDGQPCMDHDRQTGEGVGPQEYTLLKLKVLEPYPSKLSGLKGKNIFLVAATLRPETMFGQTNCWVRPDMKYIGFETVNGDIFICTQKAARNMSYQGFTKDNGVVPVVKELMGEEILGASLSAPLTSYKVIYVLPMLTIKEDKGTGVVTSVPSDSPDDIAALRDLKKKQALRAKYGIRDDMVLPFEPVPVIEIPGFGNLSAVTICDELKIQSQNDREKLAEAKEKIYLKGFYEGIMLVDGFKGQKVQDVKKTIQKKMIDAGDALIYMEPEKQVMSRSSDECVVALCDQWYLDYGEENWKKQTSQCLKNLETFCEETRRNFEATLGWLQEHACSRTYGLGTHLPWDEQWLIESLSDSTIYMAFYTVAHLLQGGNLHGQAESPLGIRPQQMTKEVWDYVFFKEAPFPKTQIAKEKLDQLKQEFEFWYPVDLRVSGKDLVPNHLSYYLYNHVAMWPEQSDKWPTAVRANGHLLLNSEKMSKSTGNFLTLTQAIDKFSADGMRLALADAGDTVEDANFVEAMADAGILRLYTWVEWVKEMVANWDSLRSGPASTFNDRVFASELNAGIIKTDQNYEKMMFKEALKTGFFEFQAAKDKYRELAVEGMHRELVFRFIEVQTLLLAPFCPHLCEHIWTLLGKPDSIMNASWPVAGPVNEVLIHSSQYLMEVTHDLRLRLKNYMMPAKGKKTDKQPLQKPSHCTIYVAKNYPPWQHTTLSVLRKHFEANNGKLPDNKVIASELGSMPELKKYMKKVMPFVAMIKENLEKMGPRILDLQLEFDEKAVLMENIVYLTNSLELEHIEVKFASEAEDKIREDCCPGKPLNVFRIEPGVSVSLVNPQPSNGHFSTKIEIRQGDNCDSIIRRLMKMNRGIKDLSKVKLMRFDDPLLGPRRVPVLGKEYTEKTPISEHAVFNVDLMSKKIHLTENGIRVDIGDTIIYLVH

S. aureus MRSA LeuRS, sequence (P67513 whole entry, looked up): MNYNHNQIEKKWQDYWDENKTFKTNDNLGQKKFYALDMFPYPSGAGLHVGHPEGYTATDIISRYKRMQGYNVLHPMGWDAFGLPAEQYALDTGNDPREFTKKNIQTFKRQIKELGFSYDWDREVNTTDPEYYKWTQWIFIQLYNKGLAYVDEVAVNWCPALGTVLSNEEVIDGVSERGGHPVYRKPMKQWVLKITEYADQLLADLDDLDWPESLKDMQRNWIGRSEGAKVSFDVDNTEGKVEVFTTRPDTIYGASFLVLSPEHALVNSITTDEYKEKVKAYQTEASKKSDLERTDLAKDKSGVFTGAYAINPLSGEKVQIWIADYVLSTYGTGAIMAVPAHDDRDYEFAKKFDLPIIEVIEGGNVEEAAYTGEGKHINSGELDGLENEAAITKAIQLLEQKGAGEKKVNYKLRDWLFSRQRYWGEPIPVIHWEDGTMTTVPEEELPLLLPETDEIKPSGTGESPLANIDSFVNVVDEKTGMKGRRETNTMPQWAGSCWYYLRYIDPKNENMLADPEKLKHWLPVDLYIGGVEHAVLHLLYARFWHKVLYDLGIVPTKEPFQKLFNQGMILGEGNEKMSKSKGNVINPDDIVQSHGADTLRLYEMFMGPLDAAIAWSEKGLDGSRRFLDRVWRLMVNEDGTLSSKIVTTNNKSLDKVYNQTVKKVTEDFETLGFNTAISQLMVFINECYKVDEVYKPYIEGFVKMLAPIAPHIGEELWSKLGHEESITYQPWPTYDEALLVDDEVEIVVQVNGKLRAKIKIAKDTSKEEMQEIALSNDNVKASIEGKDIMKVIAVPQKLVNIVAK

Broadly, the IC50 is the concentration at which inhibition is half-maximal. Low values mean higher potency, high ones lower potency. As for `CC[C@H](C)[C@H](N)C(=O)NS(=O)(=O)OC[C@H]1O[C@@H](c2nc(-c3ccccc3)cs2)[C@H](O)[C@@H]1O`, the IC50 on Isoleucine--tRNA ligase is 8000 nM; in experiment [1], 330 nM.

For the molecule `CCC(C)[C@H](N)C(=O)NS(=O)(=O)OC[C@H]1O[C@@H](c2nc(-c3ccc(Oc4ccccc4)cc3)cs2)[C@H](O)[C@@H]1O` (stereo not given in full), in experiment [2], the Selectivity is 8.2. Also, the IC50 against Isoleucine--tRNA ligase came to 270 nM; in experiment [1], 370 nM.

`CCC(C)[C@H](N)C(=O)NS(=O)(=O)OC[C@H]1O[C@@H](c2nc(-c3cccc(OC)c3)cs2)[C@H](O)[C@@H]1O` (stereo not given in full): the Selectivity in experiment [2] worked out at 2.3. Further, the values for the concentration for half-maximal inhibition (IC50) (against Isoleucine--tRNA ligase; in experiment [1]) were 50 nM and 34 nM, respectively.

For the molecule `CCC(C)[C@H](N)C(=O)NS(=O)(=O)OC[C@H]1O[C@@H](c2nc(-c3ccc4cc(OC)ccc4c3)cs2)[C@H](O)[C@@H]1O` (stereo not given in full), in experiment [2], the Selectivity came to 4. The IC50 was 130 nM at Isoleucine--tRNA ligase and 400 nM in experiment [1].

As to `CCC(C)[C@H](N)C(=O)NS(=O)(=O)OC[C@H]1O[C@@H](c2nc(-c3ccc(OC)cc3)cs2)[C@H](O)[C@@H]1O` (stereo not given in full), the Selectivity in experiment [2] turned out to be 2. For the same molecule, the figures for the half-inhibitory concentration (IC50) (against Isoleucine--tRNA ligase; in experiment [1]) were 100 nM and 200 nM, respectively.

With `CC(C)C[C@H](N)C(=O)NS(=O)(=O)OC[C@H]1O[C@@H](c2nc(-c3ccc(Oc4ccccc4)cc3)cs2)[C@H](O)[C@@H]1O`, the IC50 against S. aureus MRSA LeuRS was more than 54 nM; in experiment [4] it was 600 nM. Further, in experiment [3], the Selectivity is 375.

As to `CC(C)C[C@H](N)C(=O)NS(=O)(=O)OC[C@H]1O[C@@H](c2nc(CCc3ccccc3)cs2)[C@H](O)[C@@H]1O`, the IC50 against S. aureus MRSA LeuRS worked out at 90 nM; in experiment [4] it was 730 nM. In experiment [3], the Selectivity was more than 365.

Regarding `CCC(C)[C@H](N)C(=O)NS(=O)(=O)OC[C@H]1O[C@@H](c2nc(-c3cc(C#N)co3)cs2)[C@H](O)[C@@H]1O` (stereo not given in full), the Selectivity in experiment [2] was determined as 1. Also, the half-inhibitory concentration (IC50) against Isoleucine--tRNA ligase was determined as 240 nM; in experiment [1], 120 nM.

Take `CCC(C)[C@H](N)C(=O)NS(=O)(=O)OC[C@H]1O[C@@H](c2nc(-c3ccccc3OC)cs2)[C@H](O)[C@@H]1O` (stereo not given in full): in experiment [2], the Selectivity is 3.3. The IC50 was 300 nM on Isoleucine--tRNA ligase and 100 nM in experiment [1].

With `CC(C)C[C@H](N)C(=O)NS(=O)(=O)OC[C@H]1O[C@@H](c2nc(CCc3ccc(Oc4ccccc4)cc3)cs2)[C@H](O)[C@@H]1O`, the half-inhibitory concentration (IC50) at S. aureus MRSA LeuRS was determined as 100 nM; in experiment [4] it was 1150 nM. In experiment [3], the Selectivity turned out to be 192.

Consider `CCC(C)[C@H](N)C(=O)NS(=O)(=O)OC[C@H]1O[C@@H](c2nc(CCc3ccc(Oc4ccccc4)cc3)cs2)[C@H](O)[C@@H]1O` (stereo not given in full), for which the Selectivity in experiment [2] was found to be 9.3. Also, the IC50 against Isoleucine--tRNA ligase turned out to be 120 nM; in experiment [1] it was 1020 nM.

In the case of `CCC(C)[C@H](N)C(=O)NS(=O)(=O)OC[C@H]1O[C@@H](c2nc(CCc3ccccc3)cs2)[C@H](O)[C@@H]1O` (stereo not given in full), in experiment [2], the Selectivity is 10. The concentration for half-maximal inhibition (IC50) at Isoleucine--tRNA ligase was 40 nM; in experiment [1], 300 nM.

For the origin of these results see ChEMBL document CHEMBL1131923, “Synthesis and structure-activity relationships of a series of novel thiazoles as inhibitors of aminoacyl-tRNA synthetases” (Bioorg Med Chem Lett, 1999).
